Results from US20260207578A1, “COMPOUND BASED ON SULFUR/OXYGEN SUBSTITUTED GLUTARIMIDE-BASED ISOINDOLINONE SKELETON AND USE THEREOF” (Gluetacs Therapeutics (Shanghai) Co., LTD., priority 2022, published 2026).

Columns and labels:
[1] = biological target: T1, human Cereblon WT GST-tagged protein (Homo sapiens, UniProt Q96SW2); test: CRBN-binding affinity, HTRF (CEREBLON BINDING kit); conditions: displacement of Thalidomide-Re reagent, 3 hours at room temperature
T1 construct: purchased CISBIO 64BDCRBNPEH
T1 sequence (Q96SW2 whole entry): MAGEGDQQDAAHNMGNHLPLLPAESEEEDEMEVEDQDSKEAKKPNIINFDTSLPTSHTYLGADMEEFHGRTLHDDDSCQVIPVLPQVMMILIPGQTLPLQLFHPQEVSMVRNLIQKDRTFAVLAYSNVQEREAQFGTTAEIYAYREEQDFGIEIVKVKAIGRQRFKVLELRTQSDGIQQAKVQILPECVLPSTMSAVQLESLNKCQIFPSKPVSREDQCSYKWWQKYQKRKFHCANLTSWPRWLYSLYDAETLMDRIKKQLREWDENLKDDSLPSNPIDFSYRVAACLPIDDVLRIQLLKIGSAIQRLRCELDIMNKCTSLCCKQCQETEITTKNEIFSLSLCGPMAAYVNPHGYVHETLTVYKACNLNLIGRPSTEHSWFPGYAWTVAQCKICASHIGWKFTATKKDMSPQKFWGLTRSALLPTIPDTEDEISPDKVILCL
How it was run: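 Compounds displace a thalidomide-Re tracer from GST-tagged human Cereblon WT, detected with an Eu-labelled anti-GST antibody by time-resolved fluorescence. Signal at 620 nm was normalised against solvent and blank controls.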

IKZF1 = biological target: T2, IKZF1 (Homo sapiens, UniProt Q13422+Q96SW2); test: Western-blot assay, substrate protein in hPBMCs; format: cell-based; conditions: hPBMC cells, 24 hours, tested at 50 nM and 500 nM, table does not say which
T2 construct: endogenous in cells; host or cells: human PBMCs (Milecell Biotechnologies)
T2 sequence (Q13422 whole entry): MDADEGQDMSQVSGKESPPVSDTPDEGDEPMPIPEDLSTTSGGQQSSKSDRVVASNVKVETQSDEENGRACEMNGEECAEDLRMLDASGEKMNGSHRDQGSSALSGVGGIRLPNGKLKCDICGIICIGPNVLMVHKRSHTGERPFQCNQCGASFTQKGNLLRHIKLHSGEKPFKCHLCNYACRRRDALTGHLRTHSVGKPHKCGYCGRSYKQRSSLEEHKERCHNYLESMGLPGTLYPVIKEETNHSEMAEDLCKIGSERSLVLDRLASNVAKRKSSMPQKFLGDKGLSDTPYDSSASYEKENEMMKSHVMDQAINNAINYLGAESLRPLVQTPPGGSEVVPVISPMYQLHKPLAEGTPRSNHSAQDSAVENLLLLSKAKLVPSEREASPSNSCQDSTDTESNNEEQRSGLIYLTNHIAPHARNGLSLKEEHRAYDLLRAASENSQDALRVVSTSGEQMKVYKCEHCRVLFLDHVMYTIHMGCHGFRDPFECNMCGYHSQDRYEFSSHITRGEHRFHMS
T2 sequence (Q96SW2 whole entry): as the sequence (Q96SW2 whole entry) above
T2 sequence (Q16531 whole entry partner): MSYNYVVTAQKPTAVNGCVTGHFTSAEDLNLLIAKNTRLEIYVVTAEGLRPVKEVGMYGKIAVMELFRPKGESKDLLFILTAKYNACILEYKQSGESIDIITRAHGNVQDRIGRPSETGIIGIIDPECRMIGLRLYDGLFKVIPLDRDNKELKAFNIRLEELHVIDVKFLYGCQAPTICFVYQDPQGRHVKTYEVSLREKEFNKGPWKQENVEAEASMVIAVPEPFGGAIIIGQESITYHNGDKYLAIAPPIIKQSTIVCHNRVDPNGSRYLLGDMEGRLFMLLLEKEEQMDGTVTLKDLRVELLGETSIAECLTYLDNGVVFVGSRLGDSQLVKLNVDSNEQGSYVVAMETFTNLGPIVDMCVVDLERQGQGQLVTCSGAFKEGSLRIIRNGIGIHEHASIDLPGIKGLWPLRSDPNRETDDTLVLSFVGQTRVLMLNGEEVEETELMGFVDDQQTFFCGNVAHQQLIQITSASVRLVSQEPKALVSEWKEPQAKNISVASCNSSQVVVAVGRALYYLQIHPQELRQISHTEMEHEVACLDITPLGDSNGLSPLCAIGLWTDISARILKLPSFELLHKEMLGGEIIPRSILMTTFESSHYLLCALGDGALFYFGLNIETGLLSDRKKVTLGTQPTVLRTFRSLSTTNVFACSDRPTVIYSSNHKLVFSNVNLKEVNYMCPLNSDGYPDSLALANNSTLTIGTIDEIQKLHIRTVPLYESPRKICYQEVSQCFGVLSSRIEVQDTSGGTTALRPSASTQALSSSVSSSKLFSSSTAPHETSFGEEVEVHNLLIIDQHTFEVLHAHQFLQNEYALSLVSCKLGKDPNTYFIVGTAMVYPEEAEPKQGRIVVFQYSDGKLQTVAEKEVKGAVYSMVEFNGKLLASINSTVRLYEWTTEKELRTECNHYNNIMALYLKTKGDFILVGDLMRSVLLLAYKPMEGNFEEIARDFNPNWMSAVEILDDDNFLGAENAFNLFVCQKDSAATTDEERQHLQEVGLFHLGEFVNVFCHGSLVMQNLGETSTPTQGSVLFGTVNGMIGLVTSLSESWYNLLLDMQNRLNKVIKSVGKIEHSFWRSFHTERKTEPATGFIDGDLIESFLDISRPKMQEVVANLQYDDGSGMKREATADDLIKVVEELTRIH
Description: The effect of the compounds of the present disclosure on the expression of target proteins in cells was detected using conventional Western blot analysis.
Human peripheral blood mononuclear cells (hPBMCs) at a density of 1×10^6 cells/mL were thawed according to the PBMC Recovery Protocol (Milecell Biotechnologies Inc, Shanghai). The cells were then treated with the compounds of the present disclosure (including the compounds listed in Tables 1 and 2, and the Examples A1-A20 and 1-116 compounds) at concentrations of 50 nM and 500 nM.
Controls included a negative control (DMSO) and a positive control (the commercial immunomodulatory drug lenalidomide), both processed following the identical experimental protocol as the compounds of the present disclosure. After 24 hours of compounds treatment, cells were harvested and lysed in RIPA protein lysate containing phosphatase inhibitors on ice for 30-60 min, followed by centrifugation. The supernatant was aspirated as the extracted total cell protein. The protein concentration of the supernatant was determined using the conventional BCA (Bicinchoninic Acid) assay. The supernatant was then mixed with 4× SDS sample loading buffer, denatured at 95° C. for 5 minutes, and then subjected to SDS-PAGE electrophoresis on a polyacrylamide gel. Proteins were then transferred to a nitrocellulose (NC) membrane, blocked at room temperature for 1-2 h, and processed for antibody incubation and detection according to the manufacturer's instructions (Cell Signaling Technology).
Half-Maximal Degradation Concentration value (the drug concentration required for degrading proteins by 50%, abbreviated as DC50) reads method: comparing the grayscale values of Western blot bands from drug-treated samples with those from blank DMSO-treated controls, and identifying the drug concentration range at which the grayscale value is half that of the DMSO-treated control bands.
DC50 values can be calculated using ImageJ software to measure grayscale values of Western blot bands from drug-treated samples. The concentration-response curve is fitted to estimate the drug concentration corresponding to half the grayscale value.
Target protein remaining (%) refers to the percentage of target protein remaining in hPBMC cells after treatment with protein degrader compounds.
Calculation method for protein remaining (%): Use ImageJ software to measure grayscale values of Western blot bands from drug (protein degrader)-treated samples. The grayscale value of drug-treated bands is divided by that of internal control protein bands, and the resulting quotient is normalized to obtain the relative percentage of remaining target protein after protein degrader treatment.
Target protein degradation rate (%)=100%−target protein remaining (%).

GSPT1 = biological target: T3, GSPT1 (Homo sapiens, UniProt P15170+Q96SW2); test: Western-blot assay, substrate protein in hPBMCs; format: cell-based; conditions: hPBMC cells, 24 hours, tested at 50 nM and 500 nM, table does not say which
T3 construct: endogenous in cells; host or cells: human PBMCs (Milecell Biotechnologies)
T3 sequence (P15170 whole entry): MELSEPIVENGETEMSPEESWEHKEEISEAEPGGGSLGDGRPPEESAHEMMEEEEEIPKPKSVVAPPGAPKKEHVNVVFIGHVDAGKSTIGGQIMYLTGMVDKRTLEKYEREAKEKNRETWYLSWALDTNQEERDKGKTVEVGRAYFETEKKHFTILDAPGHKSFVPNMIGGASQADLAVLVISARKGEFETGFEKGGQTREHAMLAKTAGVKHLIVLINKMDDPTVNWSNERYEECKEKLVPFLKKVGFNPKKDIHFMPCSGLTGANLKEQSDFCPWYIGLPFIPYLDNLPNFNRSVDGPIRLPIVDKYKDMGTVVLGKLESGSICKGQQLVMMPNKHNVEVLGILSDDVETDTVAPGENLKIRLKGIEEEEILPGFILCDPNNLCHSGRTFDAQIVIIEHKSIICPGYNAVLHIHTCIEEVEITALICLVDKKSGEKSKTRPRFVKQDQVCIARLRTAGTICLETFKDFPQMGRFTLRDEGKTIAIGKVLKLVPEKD
T3 sequence (Q96SW2 whole entry): as the sequence (Q96SW2 whole entry) above
T3 sequence (Q16531 whole entry partner): as the sequence (Q16531 whole entry partner) above
How it was run: (§1)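 Thawed hPBMCs, 1×10^6 cells/mL; 24 h compound; RIPA + phosphatase inhibitor lysis, BCA-normalised loading, SDS-PAGE, NC transfer, immunodetection. Bands vs internal control → % remaining; DC50 = concentration at 50% of DMSO band intensity.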

Wee1 = biological target: T4, Wee1 (Homo sapiens, UniProt P30291+Q96SW2); test: Western-blot assay, substrate protein in hPBMCs; format: cell-based; conditions: hPBMC cells, 24 hours, tested at 50 nM and 500 nM, table does not say which
T4 construct: endogenous in cells; host or cells: human PBMCs (Milecell Biotechnologies)
T4 sequence (P30291 whole entry): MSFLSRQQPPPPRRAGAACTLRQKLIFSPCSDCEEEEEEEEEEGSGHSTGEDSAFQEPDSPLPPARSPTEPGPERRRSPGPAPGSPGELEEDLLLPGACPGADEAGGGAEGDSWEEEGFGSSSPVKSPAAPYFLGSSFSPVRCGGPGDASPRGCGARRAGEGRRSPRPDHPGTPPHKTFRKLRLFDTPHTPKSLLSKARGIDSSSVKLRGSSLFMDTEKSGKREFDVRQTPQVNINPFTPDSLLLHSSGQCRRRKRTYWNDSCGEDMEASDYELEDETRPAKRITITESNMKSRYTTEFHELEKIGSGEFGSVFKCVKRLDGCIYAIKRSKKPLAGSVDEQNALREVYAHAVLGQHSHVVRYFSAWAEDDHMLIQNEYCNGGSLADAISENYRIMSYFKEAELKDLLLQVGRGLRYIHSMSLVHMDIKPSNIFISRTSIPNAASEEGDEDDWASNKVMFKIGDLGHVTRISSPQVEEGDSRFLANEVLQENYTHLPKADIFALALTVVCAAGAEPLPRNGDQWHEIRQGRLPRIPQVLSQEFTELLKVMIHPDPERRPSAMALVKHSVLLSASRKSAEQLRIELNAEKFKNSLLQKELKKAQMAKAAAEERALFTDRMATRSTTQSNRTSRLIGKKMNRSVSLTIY
T4 sequence (Q96SW2 whole entry): as the sequence (Q96SW2 whole entry) above
T4 sequence (Q16531 whole entry partner): as the sequence (Q16531 whole entry partner) above
How it was run: as §1

CK1α = biological target: T5, CK1α (Homo sapiens, UniProt P48729+Q96SW2); test: Western-blot assay, substrate protein in hPBMCs; format: cell-based; conditions: hPBMC cells, 24 hours, tested at 50 nM and 500 nM, table does not say which
T5 construct: endogenous in cells; host or cells: human PBMCs (Milecell Biotechnologies)
T5 sequence (P48729 whole entry): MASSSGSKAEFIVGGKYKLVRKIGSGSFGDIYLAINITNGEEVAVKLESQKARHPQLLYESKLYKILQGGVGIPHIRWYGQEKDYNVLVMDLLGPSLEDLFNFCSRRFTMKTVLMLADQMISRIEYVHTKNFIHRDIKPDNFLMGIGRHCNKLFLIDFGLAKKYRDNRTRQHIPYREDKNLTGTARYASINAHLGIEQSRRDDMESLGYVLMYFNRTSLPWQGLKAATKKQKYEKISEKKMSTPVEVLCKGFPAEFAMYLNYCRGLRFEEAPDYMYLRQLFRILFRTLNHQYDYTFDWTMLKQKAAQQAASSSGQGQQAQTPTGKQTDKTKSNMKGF
T5 sequence (Q96SW2 whole entry): as the sequence (Q96SW2 whole entry) above
T5 sequence (Q16531 whole entry partner): as the sequence (Q16531 whole entry partner) above
How it was run: as §1

IKZF2 = biological target: T6, IKZF2 (Homo sapiens, UniProt Q96SW2+Q9UKS7); test: Western-blot assay, substrate protein in hPBMCs; format: cell-based; conditions: hPBMC cells, 24 hours, tested at 50 nM and 500 nM, table does not say which
T6 construct: endogenous in cells; host or cells: human PBMCs (Milecell Biotechnologies)
T6 sequence (Q9UKS7 whole entry): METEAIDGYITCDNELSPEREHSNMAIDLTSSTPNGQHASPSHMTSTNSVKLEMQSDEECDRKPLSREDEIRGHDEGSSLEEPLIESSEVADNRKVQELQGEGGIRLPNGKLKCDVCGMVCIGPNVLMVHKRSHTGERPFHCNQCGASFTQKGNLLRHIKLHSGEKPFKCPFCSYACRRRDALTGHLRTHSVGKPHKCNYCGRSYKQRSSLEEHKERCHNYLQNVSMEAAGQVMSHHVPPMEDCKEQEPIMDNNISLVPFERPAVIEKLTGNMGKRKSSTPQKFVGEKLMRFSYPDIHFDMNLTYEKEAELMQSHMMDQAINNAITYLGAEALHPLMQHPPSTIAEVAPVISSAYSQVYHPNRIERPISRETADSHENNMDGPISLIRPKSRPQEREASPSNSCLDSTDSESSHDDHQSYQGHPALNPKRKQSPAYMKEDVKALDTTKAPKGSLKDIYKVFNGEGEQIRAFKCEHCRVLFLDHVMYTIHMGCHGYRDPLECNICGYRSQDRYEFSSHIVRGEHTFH
T6 sequence (Q96SW2 whole entry): as the sequence (Q96SW2 whole entry) above
T6 sequence (Q16531 whole entry partner): as the sequence (Q16531 whole entry partner) above
How it was run: as §1

Structure (SMILES) | IC50 [1] | substrate protein remaining % (IKZF1) | substrate protein remaining % (GSPT1) | substrate protein remaining % (Wee1) | substrate protein remaining % (CK1α) | substrate protein remaining % (IKZF2)
O=C1CCC(N2Cc3cc(SC4CCNCC4)ccc3C2=O)C(=O)N1 (centres unmarked) [GT-03616, 3-(1-oxo-5-(piperidin-4-ylthio)isoindolin-2-yl)piperidine-2,6-dione] | 1000 to 1900 nM | A (0%≤ substrate protein remaining % ≤80%) | A (0%≤ substrate protein remaining % ≤80%) | – | A (0%≤ substrate protein remaining % ≤80%) | A (0%≤ substrate protein remaining % ≤80%)
CC1(C)CCC(C(=O)N2CC(Sc3ccc4c(c3)CN(C3CCC(=O)NC3=O)C4=O)C2)=C(c2ccc(Cl)cc2)C1 (centres unmarked) [GT-06137, 3-(5-((1-(4′-chloro-5,5-dimethyl-3,4,5,6-tetrahydro-[1,1′-biphenyl]-2-carbonyl)azetidin-3-yl)thio)-1-oxoisoindolin-2-yl)piperidine-2,6-dione] | 500 to 1000 nM | A (0%≤ substrate protein remaining % ≤80%) | A (0%≤ substrate protein remaining % ≤80%) | A (0%≤ substrate protein remaining % ≤80%) | – | –
CC1(C)CCC(CN2CC(Sc3cccc4c3C(=O)N(C3CCC(=O)NC3=O)C4)C2)=C(c2ccc(Cl)cc2)C1 (centres unmarked) [GT-06812, 3-(7-((1-((4′-chloro-5,5-dimethyl-3,4,5,6-tetrahydro-[1,1′-biphenyl]-2-yl)methyl)azetidin-3-yl)thio)-1-oxoisoindolin-2-yl)piperidine-2,6-dione] | 1000 to 1900 nM | A (0%≤ substrate protein remaining % ≤80%) | A (0%≤ substrate protein remaining % ≤80%) | A (0%≤ substrate protein remaining % ≤80%) | – | –
O=C1CCC(N2Cc3cc(OC4CN(C(c5ccccc5)c5cccnc5)C4)ccc3C2=O)C(=O)N1 (centres unmarked) [GT-06760, 3-(1-oxo-5-((1-(phenyl(pyridin-3-yl)methyl)azetidin-3-yl)oxy)isoindolin-2-yl)piperidine-2,6-dione] | < 500 nM | A (0%≤ substrate protein remaining % ≤80%) | – | A (0%≤ substrate protein remaining % ≤80%) | – | A (0%≤ substrate protein remaining % ≤80%)
CC1(C)CCC(CN2CC(Sc3ccc4c(c3)CN(C3CCC(=O)NC3=O)C4=O)C2)=C(c2ccc(Cl)cc2)C1 (centres unmarked) [GT-03464, 3-(5-((1-((4′-chloro-5,5-dimethyl-3,4,5,6-tetrahydro-[1,1′-biphenyl]-2-yl)methyl)azetidin-3-yl)thio)-1-oxoisoindolin-2-yl)piperidine-2,6-dione] | < 500 nM | A (0%≤ substrate protein remaining % ≤80%) | A (0%≤ substrate protein remaining % ≤80%) | A (0%≤ substrate protein remaining % ≤80%) | A (0%≤ substrate protein remaining % ≤80%) | –
O=C1CCC(N2Cc3cccc(SC4CNC4)c3C2=O)C(=O)N1 (centres unmarked) [GT-06994, 3-(7-(azetidin-3-ylthio)-1-oxoisoindolin-2-yl)piperidine-2,6-dione] | – | A (0%≤ substrate protein remaining % ≤80%) | – | – | – | A (0%≤ substrate protein remaining % ≤80%)

More lines, main results first:

IC50 [1] | Structure (SMILES) | substrate protein remaining % (IKZF1) | substrate protein remaining % (GSPT1) | substrate protein remaining % (Wee1) | substrate protein remaining % (CK1α) | substrate protein remaining % (IKZF2)
< 500 nM | O=C1CCC(N2Cc3cc(SC4CN(Cc5cccc(-c6ccc(Cl)cc6)c5)C4)ccc3C2=O)C(=O)N1 (centres unmarked) [GT-06225, 3-(5-((1-((4′-chloro-[1,1′-biphenyl]-3-yl)methyl)azetidin-3-yl)thio)-1-oxoisoindolin-2-yl)piperidine-2,6-dione] | A (0%≤ substrate protein remaining % ≤80%) | A (0%≤ substrate protein remaining % ≤80%) | – | – | –
500 to 1000 nM | O=C1CCC(N2Cc3cc(SC4CN(Cc5ccc(-c6ccc(Cl)cc6)cc5)C4)ccc3C2=O)C(=O)N1 (centres unmarked) [GT-06226, 3-(5-((1-((4′-chloro-[1,1′-biphenyl]-4-yl)methyl)azetidin-3-yl)thio)-1-oxoisoindolin-2-yl)piperidine-2,6-dione] | A (0%≤ substrate protein remaining % ≤80%) | – | A (0%≤ substrate protein remaining % ≤80%) | – | –
< 500 nM | O=C1CCC(N2Cc3cc(OC4CN(Cc5ccc(-c6ccco6)s5)C4)ccc3C2=O)C(=O)N1 (centres unmarked) [GT-06562, 3-(5-((1-((5-(furan-2-yl)thiophen-2-yl)methyl)azetidin-3-yl)oxy)-1-oxoisoindolin-2-yl)piperidine-2,6-dione] | A (0%≤ substrate protein remaining % ≤80%) | A (0%≤ substrate protein remaining % ≤80%) | A (0%≤ substrate protein remaining % ≤80%) | – | –
500 to 1000 nM | O=C1CCC(N2Cc3cc(OC4CN(C(c5cccc(F)c5)c5cccc(F)c5)C4)ccc3C2=O)C(=O)N1 (centres unmarked) [GT-06352, 3-(5-((1-(bis(3-fluorophenyl)methyl)azetidin-3-yl)oxy)-1-oxoisoindolin-2-yl)piperidine-2,6-dione] | A (0%≤ substrate protein remaining % ≤80%) | A (0%≤ substrate protein remaining % ≤80%) | – | A (0%≤ substrate protein remaining % ≤80%) | –
500 to 1000 nM | O=C1CCC(N2Cc3cc(SC4CN(C(c5ccc(F)cc5)c5ccc(F)cc5)C4)ccc3C2=O)C(=O)N1 (centres unmarked) [GT-06503, 3-(5-((1-(bis(4-fluorophenyl)methyl)azetidin-3-yl)thio)-1-oxoisoindolin-2-yl)piperidine-2,6-dione] | A (0%≤ substrate protein remaining % ≤80%) | A (0%≤ substrate protein remaining % ≤80%) | A (0%≤ substrate protein remaining % ≤80%) | A (0%≤ substrate protein remaining % ≤80%) | –
< 500 nM | O=C1CCC(N2Cc3cc(SC4CC5(CCN(C(c6ccccc6)c6ccccc6)CC5)C4)ccc3C2=O)C(=O)N1 (centres unmarked) [GT-06920, 3-(5-((7-benzhydryl-7-azaspiro[3.5]nonan-2-yl)thio)-1-oxoisoindolin-2-yl)piperidine-2,6-dione] | A (0%≤ substrate protein remaining % ≤80%) | – | A (0%≤ substrate protein remaining % ≤80%) | – | –
< 500 nM | O=C1CCC(N2Cc3cc(OC4CC5CN(C(=O)c6ccccc6-c6ccc(Cl)cc6)CC5C4)ccc3C2=O)C(=O)N1 (centres unmarked) [GT-06954, 3-(5-((2-(4′-chloro-[1,1′-biphenyl]-2-carbonyl)octahydro-cyclopenta[c]pyrrol-5-yl)oxy)-1-oxoisoindolin-2-yl)piperidine-2,6-dione] | A (0%≤ substrate protein remaining % ≤80%) | A (0%≤ substrate protein remaining % ≤80%) | A (0%≤ substrate protein remaining % ≤80%) | – | A (0%≤ substrate protein remaining % ≤80%)
< 500 nM | CC1(C)CCC(C(=O)N2CCC(Oc3ccc4c(c3)CN(C3CCC(=O)NC3=O)C4=O)C2)=C(c2ccc(Cl)cc2)C1 (centres unmarked) [GT-06816, 3-(5-((1-(4′-chloro-5,5-dimethyl-3,4,5,6-tetrahydro-[1,1′-biphenyl]-2-carbonyl)pyrrolidin-3-yl)oxy)-1-oxoisoindolin-2-yl)piperidine-2,6-dione] | – | A (0%≤ substrate protein remaining % ≤80%) | A (0%≤ substrate protein remaining % ≤80%) | A (0%≤ substrate protein remaining % ≤80%) | A (0%≤ substrate protein remaining % ≤80%)
